Patent US7737167B2, “2-amino benzimidazole derivatives and their use as modulators of small-conductance calcium-activated potassium channels” (Neurosearch A/S, priority 2004, dated 2010)
Where a name gives a salt, the structure may show the parent alone.

melting point [°C] | Structure (SMILES)
189 to 190 | Clc1ccc(C(CNc2nc3ccccc3[nH]2)c2ccc(Cl)cc2)cc1 [Example 3, N-(Benzimidazol-2-yl)-2,2-bis(4-chlorophenyl)ethylamine]
203 to 205 | c1ccc2c(c1)CCCCC2Nc1nc2ccccc2[nH]1 (stereo not shown) [Example 15, N-(Benzimidazol-2-yl)-6,7,8,9-tetrahydro-5H-benzocyclohepten-5-ylamine]
153.5 to 154.5 | c1ccc(C(CNc2nc3ccccc3[nH]2)c2ccccc2)cc1 (as salt: HCl) [Example 1, N-(Benzimidazol-2-yl)-2,2-diphenylethylamine]
121 to 124 | Cc1cc2nc(N[C@@H]3CCCc4ccccc43)[nH]c2cc1C [Example 23, (R)-N-(5,6-Dimethylbenzimidazol-2-yl)-1,2,3,4-tetrahydro-1-naphthylamine]
242 to 243 | Clc1ccc2c(c1)CCC2Nc1nc2ccccc2[nH]1 (stereo not shown) [Example 8, N-(Benzimidazol-2-yl)-5-chloro-1-indanylamine]
180 to 184 | Clc1ccc(C(Nc2nc3ccccc3[nH]2)c2ccccc2)cc1 (stereo not shown) [Example 12, N-(Benzimidazol-2-yl)-4-chlorobenzhydrylamine]
136.5 to 137.5 | c1ccc(C(CCNc2nc3ccccc3[nH]2)c2ccccc2)cc1 (as salt: HCl) [Example 4, N-(Benzimidazol-2-yl)-3,3-diphenylpropylamine]
256 to 257 | CC1CCc2ccccc2C1Nc1nc2ccccc2[nH]1 (stereo not shown) [Example 18, N-(Benzimidazol-2-yl)-2-methyl-1,2,3,4-tetrahydro-1-naphthylamine]
242 to 243 | Brc1ccc2c(c1)CCC2Nc1nc2ccccc2[nH]1 (stereo not shown) [Example 9, N-(Benzimidazol-2-yl)-5-bromo-1-indanylamine]
255 to 258 | c1ccc(C(Nc2nc3ccccc3[nH]2)c2ccccc2)cc1 [Example 11, N-(Benzimidazol-2-yl)benzhydrylamine]
241 to 243 | Fc1ccc(C(Nc2nc3ccccc3[nH]2)c2ccc(F)cc2)cc1 [Example 14, N-(Benzimidazol-2-yl)-4,4′-difluorobenzhydrylamine]
207 to 208 | Fc1ccc2c(c1)CCC2Nc1nc2ccccc2[nH]1 (stereo not shown) [Example 7, N-(Benzimidazol-2-yl)-5-fluoro-1-indanylamine]
220 to 221 | Fc1ccc2nc(NC3CCCc4ccccc43)[nH]c2c1 (stereo not shown) [Example 24, N-(5-Fluorobenzimidazol-2-yl)-1,2,3,4-tetrahydro-1-naphthylamine]
155 to 157 | Fc1ccc(C(CNc2nc3ccccc3[nH]2)c2ccc(F)cc2)cc1 [Example 2, N-(Benzimidazol-2-yl)-2,2-bis(4-fluorophenyl)ethylamine]
250 to 252 | Cc1cc(C)c2c(c1)C(Nc1nc3ccccc3[nH]1)CCC2 (stereo not shown) [Example 19, N-(Benzimidazol-2-yl)-5,7-dimethyl-1,2,3,4-tetrahydro-1-naphthylamine]
246 to 249 | c1ccc2c(c1)CC(Nc1nc3ccccc3[nH]1)C2 [Example 6, N-(Benzimidazol-2-yl)-2-indanylamine]
181 | Fc1ccc2c(c1)C(Nc1nc3ccccc3[nH]1)CCC2 (stereo not shown) [Example 26, N-(Benzimidazol-2-yl)-7-fluoro-1,2,3,4-tetrahydro-1-naphthylamine]
276 | CC1CCC(Nc2nc3ccccc3[nH]2)c2ccccc21 (stereo not shown) (as salt: HCl) [Example 20, N-(Benzimidazol-2-yl)-4-methyl-1,2,3,4-tetrahydro-1-naphthylamine]
176 to 180 | Clc1ccc(C(Nc2nc3ccccc3[nH]2)c2ccc(Cl)cc2)cc1 [Example 13, N-(Benzimidazol-2-yl)-4,4′-dichlorobenzhydrylamine]
